From US9999624B2, “Combination Alzheimer therapy using anti-N3pGlu Abeta antibodies + a BACE inhibitor” (Eli Lilly and Company, priority 2014, dated 2018)
Structures can show the parent of a compound that is named as a salt. Where two headings read alike, the source gives them in different places. One block for each compound: values may come before it.

What was measured:
[1] = tested on: young female PDAPP mice; test: In Vivo Inhibition of Beta-Secretase (brain Abeta 1-x reduction); parameters: species or system mouse; details: for CNS penetration: inferred from brain Abeta lowering after oral dose; for Abeta 1-x peptide levels reduced in brain cortex / Abeta 1-x peptide levels reduced in brain hippocampus: 3 hours after administration, compared to vehicle-treated mice
From the text: Several animal models, including mouse, guinea pig, dog, and monkey, may be used to screen for inhibition of beta-secretase activity in vivo following compound treatment Animals used in this invention can be wild type, transgenic, or gene knockout animals. For example, the PDAPP mouse model, prepared as described in Games et al., Nature 373, 523-527 (1995), and other non-transgenic or gene knockout animals are useful to analyze in vivo inhibition of Abeta and sAPPbeta production in the presence of inhibitory compounds. Generally, 2 to 12 month old PDAPP mice, gene knockout mice or non-transgenic animals are administered compound formulated in vehicles, such as corn oil, cyclodextran, phosphate buffers, […]®, or other suitable vehicles. One to twenty-four hours following the administration of compound, animals are sacrificed, and brains as well as cerebrospinal fluid and plasma are removed for analysis of Abetas, C99, and sAPP fragments. (See May, et al., Journal of Neuroscience, 31, 16507-16516 (2011)). For standard in vivo pharmacology studies, animals are dosed with various concentrations of compound and compared to a vehicle-treated control group dosed at the same time. For some time course studies, brain tissue, plasma, or cerebrospinal fluid is obtained from selected animals, beginning at time 0 to establish a baseline. Compound or appropriate vehicle is administered to other groups and sacrificed at various times after dosing. Brain tissue, plasma, or cerebrospinal fluid is obtained from selected animals and analyzed for the presence of APP cleavage products, including Abeta peptides, sAPPbeta, and other APP fragments, for example, by specific sandwich ELISA assays. At the end of the test period, animals are sacrificed and brain tissues, plasma, or cerebrospinal fluid are analyzed for the presence of Abeta peptides, C99, and sAPPbeta, as appropriate. Brain tissues of APP transgenic animals may also be analyzed for the amount of beta-amyloid plaques following compound treatment. “Abeta 1-x peptide” as used herein refers to the sum of Abeta species that begin with […]-terminus greater than residue 28. This detects the majority of Abeta species and is often called “total Abeta”.

[2] = biological target: human BACE1(1-460):Fc (Homo sapiens (Human), UniProt P56817); test: BACE1 FRET Assay; type: biochemical; details: purified recombinant huBACE1:Fc, FRET substrate, pH 4.6; Mean ± SEM
Sequence of human BACE1(1-460):Fc (P56817 22-460): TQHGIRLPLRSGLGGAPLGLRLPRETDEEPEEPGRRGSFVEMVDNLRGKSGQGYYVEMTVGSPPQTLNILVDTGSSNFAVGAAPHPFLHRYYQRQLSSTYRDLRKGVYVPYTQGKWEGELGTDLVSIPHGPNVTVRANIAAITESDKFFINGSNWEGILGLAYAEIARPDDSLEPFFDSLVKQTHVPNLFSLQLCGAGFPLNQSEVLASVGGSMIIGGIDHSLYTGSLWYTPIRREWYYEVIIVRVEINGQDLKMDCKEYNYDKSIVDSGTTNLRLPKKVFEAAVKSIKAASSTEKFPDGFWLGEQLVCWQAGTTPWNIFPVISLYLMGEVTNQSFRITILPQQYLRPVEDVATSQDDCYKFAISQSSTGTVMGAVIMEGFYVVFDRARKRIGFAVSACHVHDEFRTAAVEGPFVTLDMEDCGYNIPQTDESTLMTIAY

[3] = tested on: primary cortical neurons from PDAPP transgenic embryonic mice; test: PDAPP Primary Neuronal Assay (Abeta ELISA); type: cell-based; details: Mus musculus, Primary cortical neuron, 24 h, Mean ± SEM

CNS penetration [1]: demonstrate CNS penetration | IC50 [2]: 0.61 nM
SMILES: Cl.NC1=N[C@@]2(c3cccc(NC(=O)c4ccc(F)cn4)c3)CN(c3ncc(F)cn3)C[C@H]2CS1 [Example 1, N-{3-[(4aR,7aS)-2-Amino-6-(5-fluoropyrimidin-2-yl)-4a,5,6,7-tetrahydropyrrolo[3,4-d][1,3]thiazin-7a(4H)-yl]phenyl}-5-fluoropyridine-2-carboxamide hydrochloride]

CNS penetration [1]: demonstrate CNS penetration
SMILES: COc1cnc(C(=O)Nc2ccc(F)c([C@]34CN(c5ncc(F)cn5)C[C@H]3CSC(N)=N4)c2)cn1.Cl [Example 4, N-[3-[(4aR,7aS)-2-Amino-6-(5-fluoropyrimidin-2-yl)-4,4a,5,7-tetrahydropyrrolo[3,4-d][1,3]thiazin-7a-yl]-4-fluoro-phenyl]-5-methoxy-pyrazine-2-carboxamide hydrochloride]
Abeta 1-x peptide levels reduced in brain cortex ([1]; 0.3 mg/kg oral dose): approximately 28% | Abeta 1-x peptide levels reduced in brain hippocampus ([1]; 0.3 mg/kg oral dose): approximately 31% | Abeta 1-x peptide levels reduced in brain cortex ([1]; 1 mg/kg oral dose): ~42% | Abeta 1-x peptide levels reduced in brain hippocampus ([1]; 1 mg/kg oral dose): ~39% | Abeta 1-x peptide levels reduced in brain cortex ([1]; 3 mg/kg oral dose): ~64% | Abeta 1-x peptide levels reduced in brain hippocampus ([1]; 3 mg/kg oral dose): ~61%

IC50 [2]: 0.739 nM
SMILES: NC1=N[C@@]2(c3cccc(NC(=O)c4ncc(F)cc4F)c3)CN(c3ncc(F)cn3)C[C@H]2CS1 [Example 7, N-[3-[(4aR,7aS)-2-Amino-6-(5-fluoropyrimidin-2-yl)-4,4a,5,7-tetrahydropyrrolo[3,4-d][1,3]thiazin-7a-yl]phenyl]-3,5-difluoro-pyridine-2-carboxamide hydrochloride]

SMILES: N#Cc1ccc(C(=O)Nc2ccc(F)c([C@]34CN(c5ncc(F)cn5)C[C@H]3CSC(N)=N4)c2)nc1 [Example 8, N-[3-[(4aR,7aS)-2-Amino-6-(5-fluoropyrimidin-2-yl)-4,4a,5,7-tetrahydropyrrolo[3,4-d][1,3]thiazin-7a-yl]-4-fluoro-phenyl]-5-cyano-pyridine-2-carboxamide hydrochloride]
IC50 ([3]; Abeta 1-40 in conditioned media, read-out: PDAPP Neuron A-beta (1-40) ELISA IC50): 0.137 nM | IC50 ([3]; Abeta 1-42 in conditioned media, read-out: PDAPP Neuron A-beta (1-42) ELISA IC50): 0.0725 nM
